The source of these data is US20250206761A1, “HALOINDOLE MACROCYCLIC COMPOUNDS FOR THE TREATMENT OF CANCER” (Hoffmann-La Roche Inc., priority 2022, published 2025).

Data set [1] addresses KRAS G12V binding to BRAF (Homo sapiens (Human), UniProt P01116+P62937, G12V). The data set can be described thus: KRAS-BRAF with CYPA (500 nM) interaction assay (TR-FRET), G12V. Format: biochemical. The gist of the method:
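A TR-FRET assay measured how compound, in the presence of CYPA, disrupts binding of GMPPNP-loaded 6His-KRAS G12V to BRAF. The buffer contained 25 mM HEPES PH=7.4, 0.002% Tween20, 0.1% BSA, 100 mM NaCl, 5 mM MgCl2 and 10 μM GMPPNP. Compounds ran as a 16-point 3-fold dilution series from 10 μM for 3 hours.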

Data set [2] concerns the target T1, KRAS G12C-BRAF complex (Homo sapiens (Human), UniProt P01116+P62937, G12C). In words: KRAS G12C-BRAF NanoBit assay. Format: cell-based. The conditions noted are these: HEK293 cells, 3 hours of incubation. As to the method:
This assay is to measure the ability of tested compounds in disruption of the KRAS G12C-BRAF complex at the cellular level, we established the NanoBit cellular assay in mammalian HEK293 (ATCC) cells.
HEK293 cells were grown and maintained using DMEM medium (Thermo Fisher Scientific) with 10% fetal bovine serum and 1% penicillin/streptomycin. Both KRAS G12C and BRAF RBD were cloned into the NanoBit vectors ([…] vectors system, Promega) with the orientations SnmBit-KRAS G12C and BRAF RBD-LgBit, respectively, and co-transfected into HEK293 cells. Cells were then selected with 100 μg/mL Hygromycin B (10687010, Thermo Fisher) and Blasticidin (5 μg/mL) for 4 weeks to get the stable cell pool.
On the day of the assay, 75 nL of compound solution was presented in a 384-well assay plate as a 16-point 3-fold dilution starting from a final concentration of 30 μM in DMSO. Then cells were seeded at 10,000 cells/25 μL/well in a 384-well plate. After 3 hours of incubation, 6 μL of volume of Nano-Glo® Live Cell Substrate (Promega) was added into each well. Monitor luminescence using ultra384 model in Envision at 20 minutes. Compounds that facilitate disruption of the KRAS G12C-BRAF RBD complex were identified as those eliciting a decrease of luminescence relative to DMSO control wells.

Data set [3] deals with T1, KRAS G12C-BRAF complex. The data set can be described thus: KRAS-BRAF with CYPA (500 nM) interaction assay (TR-FRET), G12C. It counts as biochemical.
Data set [4] concerns phosphorylation of ERK, KRAS G12C in NCJ-H358 cells. In words: pERK inhibition assay, KRAS G12C. The conditions noted are these: 4 hours. Format: cell-based, human. The gist of the method: (§1)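 4 h compound treatment (0.5% DMSO final) of overnight-plated cells; formaldehyde fix, cold MeOH permeabilization, BSA block. Anti-pERK primary overnight at 4 °C, HRP anti-rabbit secondary, TMB readout at OD450. IC50 via 4-parameter sigmoidal model.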

Data set [5] relates to phosphorylation of ERK, KRAS G12V in SW620. In words: pERK inhibition assay, KRAS G12V. Format: cell-based, human. An outline of the steps: as §1
Data set [6] relates to phosphorylation of ERK, KRAS G12D in AGS cells. The data set can be described thus: pERK inhibition assay, KRAS G12D. The note with it: 4 hours. Format: cell-based, human. An outline of the steps: as §1
Data set [7] has as its target KRAS G12D binding to BRAF (Homo sapiens (Human), UniProt P01116+P62937, G12D). The data set can be described thus: KRAS-BRAF with CYPA (500 nM) interaction assay (TR-FRET), G12D. Format: biochemical. (In general: TR-FRET usually uses a lanthanide donor and a delayed reading to cut background.)
For data set [8], the system named is AGS (ATCC-CRL-1739) cells. In words: Cell viability assay, G12D (AGS). Format: cell-based, human. The conditions noted are these: Homo sapiens, KRAS cell viability, 72 hrs, Cell Counting Kit-8. The gist of the method:
(§2)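 After overnight attachment, cells received compounds (0.5% DMSO) for 72 hrs; viability was then quantified with CCK-8, reading OD450 minus OD650, and IC50 values were obtained from a 4-parameter concentration-response fit.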
In general terms: Tetrazolium assays rely on reduction of a dye to a coloured formazan, in cell work by metabolically active cells.

In data set [9] the test system is SW620 (ATCC-CCL-227). In words: Cell viability assay, G12V (SW620). It counts as cell-based, human. The conditions noted are these: Homo sapiens, SW-620; KRAS cell viability, SW620, 72 hrs, Cell Counting Kit-8. The gist of the method:
as §2

For data set [10], the system named is NCI-H358 (ATCC-CRL5807) cells. The data set can be described thus: Cell viability assay, G12C (NCI-H358). It counts as cell-based, human. The conditions noted are these: Homo sapiens; KRAS cell viability, NCI-H358, 72 hrs, Cell Counting Kit-8. An outline of the steps: as §2
Data set [11] relates to cryopreserved suspension hepatocytes from human. The data set can be described thus: Human hepatocyte stability assay. Format: in vitro ADME. Here is the method:
The hepatocyte stability assay measures the rate of disappearance of a compound from incubations with cryopreserved suspension hepatocytes from human. Positive controls, including Midazolam, Raloxifene and Dextromethorphan, are included in every experiment. Incubations consist of […] tested compound and suspension of human hepatocytes (1×10^6 cells/mL) in supplemented Williams' E Medium with 10% FBS and 0.5% Penicillin-streptomycin. The hepatocyte suspension was incubated with intermittent shaking 900 rpm at 37° C., in a 5% CO2 incubator. The reaction was stopped by adding methanol containing internal standard (2 μM Tolbutamide) at 2, 10, 20, 40, 60 and 120 minutes after compound addition, depletion of the parent compound was monitored by LC-MS/MS analysis.

Where [12] appears, read: Homo sapiens, SW-620, SW620, 4 hours.

T1 sequence (P01116-2 other isoform, or with tags, fused parts or gaps G12C): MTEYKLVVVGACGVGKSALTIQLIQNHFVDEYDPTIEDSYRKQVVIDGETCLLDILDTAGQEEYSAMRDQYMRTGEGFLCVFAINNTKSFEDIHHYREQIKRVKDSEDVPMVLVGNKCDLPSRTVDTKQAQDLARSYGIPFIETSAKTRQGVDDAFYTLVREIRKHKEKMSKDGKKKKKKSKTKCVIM
T1 sequence (P62937 whole entry): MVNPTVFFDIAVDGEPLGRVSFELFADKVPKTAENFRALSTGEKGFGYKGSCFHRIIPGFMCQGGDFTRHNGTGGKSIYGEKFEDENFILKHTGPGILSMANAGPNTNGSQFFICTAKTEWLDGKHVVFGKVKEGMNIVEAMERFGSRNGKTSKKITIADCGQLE
Chain of KRAS G12D binding to BRAF (P01116-2 other isoform, or with tags, fused parts or gaps G12D): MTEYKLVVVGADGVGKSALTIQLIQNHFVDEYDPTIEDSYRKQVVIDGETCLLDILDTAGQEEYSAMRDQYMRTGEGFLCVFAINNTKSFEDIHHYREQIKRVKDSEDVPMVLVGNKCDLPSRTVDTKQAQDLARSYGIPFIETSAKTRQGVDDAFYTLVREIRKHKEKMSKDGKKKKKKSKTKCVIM
Chain of KRAS G12D binding to BRAF (P62937 whole entry): as the sequence (P62937 whole entry) above
Chain of KRAS G12V binding to BRAF (P01116-2 other isoform, or with tags, fused parts or gaps G12V): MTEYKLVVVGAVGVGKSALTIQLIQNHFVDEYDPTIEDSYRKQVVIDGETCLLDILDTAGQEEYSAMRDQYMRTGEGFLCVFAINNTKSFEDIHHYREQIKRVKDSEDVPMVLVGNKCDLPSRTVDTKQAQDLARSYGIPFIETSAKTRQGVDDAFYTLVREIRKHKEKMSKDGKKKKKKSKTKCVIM
Chain of KRAS G12V binding to BRAF (P62937 whole entry): as the sequence (P62937 whole entry) above

For orientation: IC50 means the concentration needed to halve the response being measured. High values mean lower potency, low ones higher potency. In the case of `CCn1c(-c2cc(N3CCN(C)CC3)cnc2[C@H](C)OC)c2c3cc(c(F)cc31)-c1csc(n1)C[C@H](NC(=O)[C@H](C(C)C)N1CCC[C@]3(CCN(C(=O)[C@@H](F)Cl)C3)C1=O)C(=O)N1CCC[C@H](N1)C(=O)OCC(C)(C)C2` [Example 22, (2S)-2-[(5R)-2-[(2S)-2-chloro-2-fluoro-acetyl]-6-oxo-2,7-diazaspiro[4.5]decan-7-yl]-N-[(7S,13S)-21-ethyl-24-fluoro-(20M)-20-[2-[(1S)-1-methoxyethyl]-5-(4-methylpiperazin-1-yl)-3-pyridyl]-17,17-dimethyl-8,14-dioxo-15-oxa-4-thia-9,21,27,28-tetrazapentacyclo[17.5.2.1^2,5.1^9,13.0^22,26]octacosa-1(25),2,5(28),19,22(26),23-hexaen-7-yl]-3-methyl-butanamide], the half-maximal inhibitory concentration (IC50) in data set [1] is above 10 µM; in [2], 209 nM; in [3] it was 199 nM; in data set [4] it was 53 nM; in data set [5] (SW620, 4 hours), 1020 nM; in data set [6], 1060 nM. This molecule showed an IC50 in data set [7] above 10 µM.
`CO[C@@H](C)c1ncc(N2CCOCC2)cc1-c1c2c3cc(c(F)cc3n1CC(F)(F)F)-c1csc(n1)C[C@H](NC(=O)[C@H](C(C)C)N1CC[C@]3(CCN(C(=O)[C@H](F)Cl)C3)C1=O)C(=O)N1CCC[C@H](N1)C(=O)OCC(C)(C)C2` (atropisomer, axis not shown; (M)) [Example 57, (2S)-2-[(5S)-7-[(2R)-2-chloro-2-fluoro-acetyl]-1-oxo-2,7-diazaspiro[4.4]nonan-2-yl]-N-[(7S,13S)-24-fluoro-(20M)-20-[2-[(1S)-1-methoxyethyl]-5-morpholino-3-pyridyl]-17,17-dimethyl-8,14-dioxo-21-(2,2,2-trifluoroethyl)-15-oxa-4-thia-9,21,27,28-tetrazapentacyclo[17.5.2.1^2,5.1^9,13.0^22,26]octacosa-1(25),2,5(28),19,22(26),23-hexaen-7-yl]-3-methyl-butanamide]: the IC50 in [2] stood at 23 nM; in data set [8] it was 1300 nM; in data set [4] (Homo sapiens) it was 6 nM; in [9], 59 nM; in [5] (setting [12]), 33 nM; in data set [6] (Homo sapiens), 57 nM. This molecule had an IC50 in [10] of 3 nM.
With `CO[C@@H](C)c1ncc(N2CCN(C)CC2)cc1-c1c2c3cc(c(F)cc3n1CC(F)(F)F)-c1csc(n1)C[C@H](NC(=O)[C@H](C(C)C)N1CC[C@]3(CCN(C(=O)[C@H](F)Cl)C3)C1=O)C(=O)N1CCC[C@H](N1)C(=O)OCC(C)(C)C2` (atropisomer, axis not shown; (M)) [Example 5, (2S)-2-[(5S)-7-[(2R)-2-chloro-2-fluoro-acetyl]-1-oxo-2,7-diazaspiro[4.4]nonan-2-yl]-N-[(7S,13S)-24-fluoro-(20M)-20-[2-[(1S)-1-methoxyethyl]-5-(4-methylpiperazin-1-yl)-3-pyridyl]-17,17-dimethyl-8,14-dioxo-21-(2,2,2-trifluoroethyl)-15-oxa-4-thia-9,21,27,28-tetrazapentacyclo[17.5.2.1^2,5.1^9,13.0^22,26]octacosa-1(25),2,5(28),19,22(26),23-hexaen-7-yl]-3-methyl-butanamide], the IC50 turned out to be 2240 nM in data set [8]; 2 nM in data set [4] (Homo sapiens); 42 nM in [9]; 26 nM in [5] (setting [12]); 48 nM in data set [6] (Homo sapiens); 2 nM in data set [10]. In addition, the “Clearance Category” value in data set [11] (human hepatocytes) was “medium (16.24>CL_hep (mL/min/kg)>6.96 is medium clearance)”. Moreover, the “CL_hep (Human)” value in data set [11] (human hepatocytes 1×10^6 cells/mL, 37° C.) worked out at 12.5 mL/min/kg.
Turning to `CO[C@@H](C)c1ncc(N2CCOCC2)cc1-c1c2c3cc(c(F)cc3n1CC(F)(F)F)-c1csc(n1)C[C@H](NC(=O)[C@H](C(C)C)N1CCC3(CN(C(=O)[C@H](F)Cl)C3)C1=O)C(=O)N1CCC[C@H](N1)C(=O)OCC(C)(C)C2` (atropisomer, axis not shown; (M)) [Example 58, (2S)-2-[2-[(2R)-2-chloro-2-fluoro-acetyl]-5-oxo-2,6-diazaspiro[3.4]octan-6-yl]-N-[(7S,13S)-24-fluoro-(20M)-20-[2-[(1S)-1-methoxyethyl]-5-morpholino-3-pyridyl]-17,17-dimethyl-8,14-dioxo-21-(2,2,2-trifluoroethyl)-15-oxa-4-thia-9,21,27,28-tetrazapentacyclo[17.5.2.1^2,5.1^9,13.0^22,26]octacosa-1(25),2,5(28),19,22(26),23-hexaen-7-yl]-3-methyl-butanamide], the IC50 in [2] came to 54 nM; in [8], 1500 nM; in [4] (Homo sapiens), 12 nM; in data set [9], 130 nM; in data set [5] (setting [12]) it was 41 nM; in data set [6] (Homo sapiens), 124 nM. In addition, the IC50 in [10] came out at 5 nM.
On to `CCn1c(-c2cc(N3CCN(C)CC3)cnc2[C@H](C)OC)c2c3cc(c(F)cc31)-c1csc(n1)C[C@H](NC(=O)[C@H](C(C)C)N1CCC3(CN(C(=O)[C@H](F)Cl)C3)C1=O)C(=O)N1CCC[C@H](N1)C(=O)OCC(C)(C)C2` (atropisomer, axis not shown; (M)) [Example 29, (2S)-2-[2-[(2R)-2-chloro-2-fluoro-acetyl]-5-oxo-2,6-diazaspiro[3.4]octan-6-yl]-N-[(7S,13S)-21-ethyl-24-fluoro-(20M)-20-[2-[(1S)-1-methoxyethyl]-5-(4-methylpiperazin-1-yl)-3-pyridyl]-17,17-dimethyl-8,14-dioxo-15-oxa-4-thia-9,21,27,28-tetrazapentacyclo[17.5.2.1^2,5.1^9,13.0^22,26]octacosa-1(25),2,5(28),19,22(26),23-hexaen-7-yl]-3-methyl-butanamide], for which the IC50 came to 11000 nM in data set [2]; 1230 nM in data set [8]; 1 nM in data set [4] (Homo sapiens); 447 nM in [9]; 45 nM in data set [5] (setting [12]); 12 nM in data set [6] (Homo sapiens). The IC50 in data set [10] was below 1 nM.
